Results from patent US10449128B2, “Fibrous support comprising particles containing a partially water-soluble active agent, particles, and methods for producing said particles” (priority 2014, dated 2019).

Assay: Solubility in water
Type: physicochemical
Description: For the solid compounds, the solubility is defined as the percentage by weight of the compound in a solution at equilibrium with the solid phase at the above temperature T and a pressure of one atmosphere. For the liquid compounds (or solids in the pure state), the aqueous mixtures of which separate into two or more phases, the solubility taken into account is the percentage by weight of the specified compound in the water-rich liquid phase at equilibrium at the operating temperature (temperature at which said particles are manufactured (as the case may be, between 20 and 95° C.)) and a pressure of one atmosphere.

solubility in water (at 20° C.)	solubility in water (at 25° C.) [% by weight]	solubility in water (temperature not stated) [%]	SMILES
approximately 7 % by weight			CCCCN(CCC(=O)OCC)C(C)=O [IR3535, ethyl 3-[acetyl(butyl)amino]propanoate, reference compound]
	30	39	OC[C@@H](O)[C@H](O)[C@@H](O)CO [xylitol]
